Laboratory results from patent US4269940A, “Microbiological alkane oxidation process” (priority 1979, dated 1981).
Like-named read-outs stand apart in the source and are kept apart here.

How the values were obtained:
[1] = system: secondary alcohol dehydrogenase (SADH); assay: Inhibition of purified secondary alcohol dehydrogenase (SADH); type: biochemical, Pseudomonas sp. ATCC 21439
Method: (§1) Secondary alcohol dehydrogenase (SADH) from an obligate methanol utilizer, Pseudomonas sp. ATCC 21439 was purified as follows. […] 0.05 M sodium phosphate buffer, pH 7.0 with 0.5mM dithiothretol (buffer A) and were disrupted sonically (5×1 min.). The crude extract was separated by centrifugation. The crude extract was heat-treated at 50° C. in a water bath for 10 minutes. The resulting precipitate was removed by centrifugation. To the supernatant solution, 25 ml of protamine sulfate solution (2% solution in 0.1 M Tris base) was added dropwise with continuous stirring. After standing for 30 minutes, the extract was centrifuged. The supernatant solution was fractionated with solid ammonium sulfate. […] This DEAE-cellulose eluate was concentrated by ammonium sulfate fractionation. Material precipitating between 30 and 50% ammonium sulfate saturation was collected by centrifugation and dialyzed overnight against A. This fraction was further washed and filtered through an Amicon unit with XM 50 membrane. The concentrated fraction (6 ml) inside the Amicon unit was applied to an Affi-Gel Blue column (0.8 cm ×18 cm) which had been equilibrated with buffer A for affinity chromatography. The column was washed overnight with buffer A (0.18 ml./min.) and then was eluted with buffer A containing 5 mM NAD. Each 1 ml. fraction was collected.
(§2) The purified secondary alcohol dehydrogenase enzyme (SADH) may be used directly for converting C3 -C6 secondary alcohols to the corresponding methyl ketones by the procedures described above; however, a source of NAD^+ must be added to the reaction medium. One can determine the NAD-linked secondary alcohol dehydrogenase activity with a fluorescence spectrophotometer (Perkin Elmer, Model MPF 44A) by following the formation of reduced NAD (Ex 340 nm, Em 460 nm). The assay system (3 ml.) will typically contain: sodium phosphate buffer pH 7.0, 150 μmol; NAD 1.0 μmol; a given amount of enzyme preparation; and 20 μmol secondary alcohol. The reaction is started by the addition of secondary alcohol. One unit of SADH enzyme activity represents the reduction of one nmole NAD per minute.
The effect of metal-chelating agents and thioreagents on the activity of the purified SADH enzyme were studied. […] The possibility of ethanol or n-propanol as an inhibitor was studied.

[2] = system: P(40) fraction of Methylosinus sp. (CRL-15, NRRL B-11,202); assay: Effect of inhibitors on propylene epoxidation and methane hydroxylation by P(40) fraction (Table XI); type: biochemical; details: inhibitor 10^-3 M
Method: The oxidation of methane and propylene by particulate [(P)40 and (P)80] fractions and soluble [S(80)] fraction was measured at 30° C. by estimating the production of methanol and propylene oxide, respectively. The reaction mixtures contained in 1.0 ml: 150 mM potassium phosphate buffer, pH 7.0 containing 5 mM MgC2, 0.6 ml; 10 μmoles NADH, and cellular fraction.
Reaction mixtures were contained in 10 ml vials at 4° C. Vials were sealed with rubber caps. The gaseous phase in the vials was removed using vacuum and then was replaced with a gas mixture of methane or propylene and oxygen at a 1:1, v/v ratio. Oxidation of other gaseous n-alkanes and n-alkenes was examined as described above. For liquid substrates, 10 μ of substrate was used directly. Vials were then incubated at 30° C. on a rotary shaker at 200 RPM.
The products of epoxidation of n-alkenes and hydroxylation of n-alkanes were assayed by flame ionization gas chromatography using a stainless steel column (12'×1/8") packed with 10% Carbowax 20M on 80/100 Chromosorb W and Porapak Q column. The column temperature was maintained isothermally at 120° C. The carrier gas flow rate was 30 ml/min. of helium. The various products were identified by retention time comparisons and co-chromatography with authentic standards.
It has been reported that the oxidation of methane by cell suspensions of methane-utilizing bacteria was inhibited by various metal-binding or metal-chelating agents (Patel et al., J. Bacteriol. 126: 1017-1019 (1976)). […] (CRL-15, NRRL B-11,202) was examined.

[3] = system: cell-free particulate fractions derived from the methylotrophic microorganisms; assay: Inhibition of conversion of C3-C6 n-alkanes to sec. alcohols by cell-free particulate fractions; type: biochemical; details: oxygen and NADH
Excerpt: The conditions for preparing the cell suspensions or the cell-free particulate fractions from methane-grown methylotroph microorganisms is the same as described above.

[4] = system: secondary alcohol dehydrogenase (SADH); assay: Substrate specificity and Michaelis constants of purified SADH; type: biochemical, Pseudomonas sp. ATCC 21439
Method: as §1, §2

[5] = system: purified secondary alcohol dehydrogenase; assay: Substrate and electron acceptor specificity of purified yeast secondary alcohol dehydrogenase; type: biochemical, Pichia sp. NRRL Y-11,328; details: for Oxidation by the purified yeast enzyme (in words): examined spectrophotometrically
Method: (§3) Large scale cultures of Pichia sp. NRRL Y-11,328 were grown with aeration at 30° C. in a 14-liter New Brunswick f fermentor in a mineral salt medium containing methanol (0.4%, v/v) as the sole carbon source. The cells (200 g., wet weight) were suspended in 50 mm sodium phosphate buffer, pH 7.0, containing 1 mM dithiothreitol (buffer A), and crude extracts were prepared as described previously. To the crude extracts, 18 ml. of protamine sulfate solution [2% solution in 0.1 M tris (hydroxymethyl) aminomethane (tris) base] was added dropwise with continuous stirring. After standing for 30 min., the extracts were centrifuged at 20,000 x g. for 60 min. The supernatant solution was fractioned with solid ammonium sulfate. Extracts were brought to 50% of saturation with respect to ammonium sulfate by addition of 313 g. of the salt per liter of extract. Precipitated proteins was removed by centrifugation, and 137 g. of ammonium sulfate was added per liter of the supernatant liquid to bring it to 70% of saturation. Material precipitating between 50 and 70% of saturation was collected by centrifugation and dissolved in buffer A. This preparation was dialyzed overnight against buffer A, and the dialyzed material was applied to a DEAE-cellulose column (5×40 cm) that had been equilibrated with buffer A. The sample was washed with 200 ml. of buffer A and eluted with 2 liters of buffer A that contained NaCl in a linear gradient running from a concentration of 0 to 0.5 M. Fractions of 15 ml. were collected. Fractions containing secondary alcohol dehydrogenase activity were pooled and were termed DEAE-cellulose eluate. The DEAE-cellulose eluate was concentrated by ammonium sulfate fractionation.
(§4) Secondary alcohol dehydrogenase activity was measured spectrophotometrically at 340 nm with a NAD^+ as an electron acceptor. The reaction mixture, in a total 3.0 ml., contained 50 mM phosphate buffer, pH 8.0, 5μmoles NAD^+, crude extracts, and substrate. The reactions were started by addition of 100 μof 0.1 M substrate and the rate of NAD^+ reduction was measured. Protein concentration was determined by the method of Lowry et al.
The substrate specificity of the purified secondary alcohol dehydrogenase was examined spectrophotometrically.

[6] = system: cell suspensions of the strains of C1-utilizers tested; assay: Production of methyl ketones from secondary alcohols by cell suspensions of C1-utilizers (strains tested); type: cell-based; details: for Inhibition of production of 2-butanone from 2-butanol: cell suspensions of the strains tested; for Rate of oxidation of secondary alcohols to methyl ketones: cell suspensions of C1-utilizers
Excerpt: The substrate specificity for the oxidation of C3 -C6 secondary alcohols by the strains of C1 -utilizers was studied.

[7] = system: purified secondary alcohol dehydrogenase; assay: Inhibition of purified yeast secondary alcohol dehydrogenase; type: biochemical, Pichia sp. NRRL Y-11,328; details: purified yeast enzyme
Method: as §3, §4
Various primary alcohols not oxidized by secondary alcohol dehydrogenase were tested as potential inhibitors of enzyme activity.

[8] = inhibitor 1 mM, measured spectrofluorometrically

## [Fe+2] [ferrous]
[1]; [8]
  % inhibition of SADH activity: 50%

## Oc1cccc2cccnc12 [8-Hydroxyquinoline]
[2]
  % inhibition of methane-hydroxylating activity: 80%
  % inhibition of propylene-epoxidizing activity: 75%
[3]
  Inhibition of conversion of C3-C6 n-alkanes to sec. alcohols (in words): inhibited

## CCC=O [propanal]
[4]
  Oxidation by purified SADH (in words): oxidized at a lower rate

## CCO [ethanol]
[5]
  Oxidation by the purified yeast enzyme (in words): not oxidized

## c1ccc(-c2ccccn2)nc1 [α,α-bipyridyl]
[2]
  % inhibition of methane-hydroxylating activity: 99%
  % inhibition of propylene-epoxidizing activity: 98%
[6]
  Inhibition of production of 2-butanone from 2-butanol: inhibited
[1]; [8]
  % inhibition of SADH activity: 70%
[3]
  Inhibition of conversion of C3-C6 n-alkanes to sec. alcohols (in words): inhibited

## [Ni+2] [nickel]
[1]; [8]
  % inhibition of SADH activity: 20%

## CC=O [acetaldehyde]
[4]
  Oxidation by purified SADH (in words): oxidized at a lower rate

## c1cnc2c(c1)ccc1cccnc12 [1,10-phenanthroline]
[2]
  % inhibition of methane-hydroxylating activity: 90%
  % inhibition of propylene-epoxidizing activity: 93%
[6]
  Inhibition of production of 2-butanone from 2-butanol: inhibited
[1]; [8]
  % inhibition of SADH activity: 95%
[7]
  Inhibition of secondary alcohol dehydrogenase activity (in words): strongly inhibited
[3]
  Inhibition of conversion of C3-C6 n-alkanes to sec. alcohols (in words): inhibited

## [Zn+2] [Zn^++]
[1]; [8]
  % inhibition of SADH activity: 0%

## O=C(O)c1cc[c]([Hg+])cc1.[OH-] [p-hydroxymercuribenzoate]
[1]; [8]
  % inhibition of SADH activity: 100%
[7]
  Inhibition of secondary alcohol dehydrogenase activity (in words): strongly inhibited

## Oc1ccccc1 [phenol]
[4]
  Oxidation by purified SADH (in words): not oxidized

## NC(N)=S [Thiourea]
[2]
  % inhibition of methane-hydroxylating activity: 98%
  % inhibition of propylene-epoxidizing activity: 98%
[6]
  Inhibition of production of 2-butanone from 2-butanol: not inhibited
[1]; [8]
  % inhibition of SADH activity: 0%
[3]
  Inhibition of conversion of C3-C6 n-alkanes to sec. alcohols (in words): inhibited

## CCCO [n-propanol]
[5]
  Oxidation by the purified yeast enzyme (in words): not oxidized

## N#C[S][Hg][S]C#N [mercuric thiocyanate]
[7]
  Inhibition of secondary alcohol dehydrogenase activity (in words): inhibited

## CC(C)CO [isobutanol]
[4]
  Oxidation by purified SADH (in words): not oxidized

## c1c[nH]cn1 [Imidazole]
[7]
  Inhibition of secondary alcohol dehydrogenase activity (in words): strongly inhibited

## CCCC(C)O (stereo not drawn) [2-pentanol]
[6]
  Rate of oxidation of secondary alcohols to methyl ketones: much slower rate
[4]
  Oxidation by purified SADH (in words): oxidized at a lower rate
[5]
  Oxidation by the purified yeast enzyme (in words): catalyzed the oxidation

## CCCCCCC(C)O (stereo not drawn) [2-octanol]
[5]
  Oxidation by the purified yeast enzyme (in words): not oxidized

## CCC(O)CO (stereo not drawn) [butane 1,2-diol]
[4]
  Oxidation by purified SADH (in words): not oxidized
[5]
  Oxidation by the purified yeast enzyme (in words): not oxidized

## O=C(O)c1cc(SSc2ccc([N+](=O)[O-])c(C(=O)O)c2)ccc1[N+](=O)[O-] [5,5'-dithiobis(2-nitrobenzoic acid)]
[1]; [8]
  % inhibition of SADH activity: 100%

## O=Cc1ccccc1 [benzaldehyde]
[4]
  Oxidation by purified SADH (in words): not oxidized

## NNC(N)=S [Thiosemicarbazide]
[2]
  % inhibition of methane-hydroxylating activity: 100%
  % inhibition of propylene-epoxidizing activity: 97%
[3]
  Inhibition of conversion of C3-C6 n-alkanes to sec. alcohols (in words): inhibited

## [Mn+2] [Mn^++]
[1]; [8]
  % inhibition of SADH activity: 0%

## OC1CCCCC1 [cyclohexanol]
[4]
  Oxidation by purified SADH (in words): oxidized at a lower rate

## O=[N+]([O-])[O-].[Ag+] [silver nitrate]
[7]
  Inhibition of secondary alcohol dehydrogenase activity (in words): inhibited

## CC(O)C(C)O (stereo not drawn) [butane 2,3-diol]
[4]
  Oxidation by purified SADH (in words): oxidized at a lower rate

## O=C(O)CCC(=O)O [succinic acid]
[4]
  Oxidation by purified SADH (in words): not oxidized

## [N-]=[N+]=[N-] [Sodium azide]
[1]; [8]
  % inhibition of SADH activity: 10%

## [Cu+2] [cupric]
[1]; [8]
  % inhibition of SADH activity: 25%

## CC(O)CO (stereo not drawn) [1,2-propandiol]
[5]
  Oxidation by the purified yeast enzyme (in words): not oxidized

## CCCCCC(C)O (stereo not drawn) [2-heptanol]
[6]
  Rate of oxidation of secondary alcohols to methyl ketones: much slower rate
[5]
  Oxidation by the purified yeast enzyme (in words): not oxidized

## CCCCC(C)O (stereo not drawn) [2-hexanol]
[6]
  Rate of oxidation of secondary alcohols to methyl ketones: much slower rate
[4]
  Oxidation by purified SADH (in words): oxidized at a lower rate
[5]
  Oxidation by the purified yeast enzyme (in words): catalyzed the oxidation

## CO [methanol]
[5]
  Oxidation by the purified yeast enzyme (in words): not oxidized

## CCN1C(=O)C=CC1=O [N-ethylmalemide]
[1]; [8]
  % inhibition of SADH activity: 6%

## [Co+2] [Co^++]
[1]; [8]
  % inhibition of SADH activity: 0%

## CCCCO [butan-1-ol]
[5]
  Oxidation by the purified yeast enzyme (in words): not oxidized

## [Fe+3] [ferric]
[1]; [8]
  % inhibition of SADH activity: 35%

## CCCCCO [pentan-1-ol]
[5]
  Oxidation by the purified yeast enzyme (in words): not oxidized

## [Mg+2] [Mg^++]
[1]; [8]
  % inhibition of SADH activity: 0%

## C=O [formaldehyde]
[4]
  Oxidation by purified SADH (in words): not oxidized

## O=S(=O)([O-])[O-].[Cu+2] [Cupric Sulfate]
[7]
  Inhibition of secondary alcohol dehydrogenase activity (in words): inhibited

## O=C(O)CI [iodoacetic acid]
[1]
  % inhibition of SADH activity: 0%

## cytochrome c: cytochrome c tested as electron carrier [reference compound]
[5]; purified enzyme
  Function as electron acceptor/carrier for the purified yeast enzyme: could not act as electron carrier

## CC(O)CCO (stereo not drawn) [butane 1,3-diol]
[4]
  Oxidation by purified SADH (in words): oxidized at a lower rate
[5]
  Oxidation by the purified yeast enzyme (in words): not oxidized
